According to patent US8466088B2, “Herbicidal compositions containing benzoylpyrazole compounds” (Ishihara Sangyo Kaisha, Ltd., priority 2007, dated 2013):

What was measured:
crabgrass = test: Example 1: pot test, foliar treatment, visually observed growth inhibition of crabgrass; assay type: in vivo
velvetleaf = test: Example 1: pot test, foliar treatment, visually observed growth inhibition of velvetleaf; assay type: in vivo, Abutilon theophrasti MEDIC.
various plants = test: Example 1: pot test, foliar treatment, visually observed growth inhibition of other sown plants (Tables 5-1 to 5-137); assay type: in vivo; settings: for Growth inhibition rate (%) of ivyleaf morningglory, Measured value: ivyleaf morningglory 1.5 to 2.1 leaf stage; for Growth inhibition rate (%) of prickly sida, Measured value: prickly sida 2.1 to 3.1 leaf stage, 20th day after application
Source text: When the herbicidal activity in a case where two active ingredients are combined, is larger than the simple sum of the respective herbicidal activities of the two active ingredients (the expected activity), it is called a synergistic effect. The activity expected by the combination of two active ingredients can be calculated as follows (Colby S. R., “Weed”, vol. 15, p. 20-22, 1967). E=α+β−(α×β+100) where
α: growth inhibition rate when treated with x (g/ha) of herbicide X,
β: growth inhibition rate when treated with y (g/ha) of herbicide Y,
E: growth inhibition rate expected when treated with x (g/ha) of herbicide X and y (g/ha) of herbicide Y.
That is, when the actual growth inhibition rate (measured value) is larger than the growth inhibition rate by the above calculation (calculated value), the activity by the combination can be regarded as showing a synergistic effect.
Upland field soil was put into a 1/1,000,000 hectare pot, and seeds of various plants were sown. When the respective plants reached predetermined leaf stage, herbicidal compositions in predetermined amounts were diluted with water in an amount corresponding to 300 L/ha and applied for foliar treatment by a small sprayer.
On the 14th to 28th day after application, the state of growth of the respective plants was visually observed to determine the growth inhibition rate (measured value) in accordance with the following evaluation standard. Further, in accordance with the above Colby's formula, the growth inhibition rate (calculated value) was calculated. In Tables, with respect to the compound A, Compound Nos. in Table 1 or 3 are described, and with respect to other herbicidal compounds, common names are described.

[1] = 3.2 to 4.3 leaf stage, 21st day after application, 15 g/ha

Compound: COCCOc1c(S(C)(=O)=O)ccc(C(=O)c2cnn(C)c2OC(=O)SC(C)(C)C)c1C [No. 241]
- Growth inhibition rate (%) of crabgrass, Measured value (crabgrass; 3.1 to 4.0 leaf stage, 22nd day after application, 15 g/ha): 90%
- Growth inhibition rate (%) of crabgrass, Measured value (crabgrass; 3.2 to 4.1 leaf stage, 14th day after application, 15 g/ha): 94%
- Growth inhibition rate (%) of crabgrass, Measured value (crabgrass; 3.2 to 4.1 leaf stage, 21st day after application, 7 g/ha): 80%
- Growth inhibition rate (%) of crabgrass, Measured value (crabgrass; 3.2 to 4.1 leaf stage, 21st day after application, 15 g/ha): 93%
- Growth inhibition rate (%) of crabgrass, Measured value (crabgrass; 3.2 to 4.3 leaf stage, 14th day after application, 15 g/ha): 93%
- Growth inhibition rate (%) of crabgrass, Measured value (crabgrass; [1]): 88%
- Growth inhibition rate (%) of crabgrass, Measured value (crabgrass; 3.3 to 4.2 leaf stage, 24th day after application, 15 g/ha): 75%
- Growth inhibition rate (%) of crabgrass, Measured value (crabgrass; 3.5 to 4.2 leaf stage, 14th day after application, 15 g/ha): 90%
- Growth inhibition rate (%) of crabgrass, Measured value (crabgrass; 3.5 to 4.2 leaf stage, 20th day after application, 1.875 g/ha): 30%
- Growth inhibition rate (%) of crabgrass, Measured value (crabgrass; 3.5 to 4.2 leaf stage, 20th day after application, 3.75 g/ha): 68%
- Growth inhibition rate (%) of crabgrass, Measured value (crabgrass; 3.7 to 4.6 leaf stage, 21st day after application, 7 g/ha): 80%
- Growth inhibition rate (%) of crabgrass, Measured value (crabgrass; 3.7 to 4.6 leaf stage, 21st day after application, 15 g/ha): 94%
- Growth inhibition rate (%) of crabgrass, Measured value (crabgrass; 4.0 to 5.0 leaf stage, 21st day after application, 7 g/ha): 60%
- Growth inhibition rate (%) of crabgrass, Measured value (crabgrass; 4.0 to 5.0 leaf stage, 21st day after application, 15 g/ha): 80%
- Growth inhibition rate (%) of velvetleaf, Measured value (velvetleaf; 2.5 to 3.3 leaf stage, 21st day after application, 7 g/ha): 65%
- Growth inhibition rate (%) of velvetleaf, Measured value (velvetleaf; 2.5 to 3.3 leaf stage, 21st day after application, 15 g/ha): 80%
- Growth inhibition rate (%) of velvetleaf, Measured value (velvetleaf; 2.6 to 3.3 leaf stage, 20th day after application, 7 g/ha): 70%
- Growth inhibition rate (%) of velvetleaf, Measured value (velvetleaf; 2.8 to 3.6 leaf stage, 24th day after application, 3.75 g/ha): 45%
- Growth inhibition rate (%) of velvetleaf, Measured value (velvetleaf; 3.0 to 4.0 leaf stage, 21st day after application, 7 g/ha): 60%
- Growth inhibition rate (%) of velvetleaf, Measured value (velvetleaf; 3.0 to 4.0 leaf stage, 21st day after application, 15 g/ha): 80%
- Growth inhibition rate (%) of velvetleaf, Measured value (velvetleaf; [1]): 85%
- Growth inhibition rate (%) of velvetleaf, Measured value (velvetleaf; 3.3 to 4.3 leaf stage, 20th day after application, 3.75 g/ha): 45%
- Growth inhibition rate (%) of velvetleaf, Measured value (velvetleaf; 3.3 to 4.3 leaf stage, 20th day after application, 15 g/ha): 80%
- Growth inhibition rate (%) of velvetleaf, Measured value (velvetleaf; 4.0 to 4.4 leaf stage, 22nd day after application, 15 g/ha): 97%
- Growth inhibition rate (%) of ivyleaf morningglory, Measured value (various plants; 14th day after application, 75 g/ha): 88%
- Growth inhibition rate (%) of ivyleaf morningglory, Measured value (various plants; 23rd day after application, 100 g/ha): 85%
- Growth inhibition rate (%) of prickly sida, Measured value (various plants; 50 g/ha): 60%
- Growth inhibition rate (%) of prickly sida, Measured value (various plants; 100 g/ha): 60%
